Source: PubChem BioAssay (NCI)
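Test compounds were applied to cells in 96-well plates for 48 hours at 5 doses. Abbreviation: GI50, concentration required for 50% inhibition of growth. TGI is the concentration that stops growth completely.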

What was measured:
Assay in all cases: growth of human tumour cells (NCI), 48 h
[1] = tested on: NCI/ADR-RES ovarian
[2] = tested on: CAKI-1 renal
[3] = tested on: OVCAR-8 ovarian
[4] = tested on: BT-549 breast
[5] = tested on: PC-3 prostate
[6] = tested on: M14 melanoma
[7] = tested on: SW-620 colon
[8] = tested on: CCRF-CEM leukemia
[9] = tested on: SK-MEL-5 melanoma
[10] = tested on: A498 renal

SMILES: CCN1CCC(CCOC)(CN2c3ccccc3Sc3ccc(Cl)cc32)C1 (centres undefined)
- GI50 [1]: 1.73 µM
- TGI [1]: 3.89 µM
- GI50 [2]: 1.64 µM
- TGI [2]: 3.11 µM
- GI50 [3]: 2.07 µM
- TGI [3]: 4.14 µM
- GI50 [4]: 1.88 µM
- TGI [4]: 3.68 µM
- GI50 [5]: 2.03 µM
- TGI [5]: 4.74 µM
- GI50 [6]: 1.92 µM
- TGI [6]: 3.62 µM
- GI50 [7]: 1.7 µM
- TGI [7]: 3.24 µM
- GI50 [8]: 3.57 µM
- TGI [8]: > 100 µM
- GI50 [9]: 1.69 µM
- TGI [9]: 3.07 µM
- GI50 [10]: 1.95 µM
- TGI [10]: 7.39 µM

SMILES: COc1cccc(C=Nc2cc(C)ccn2)c1O.COc1cccc(C=Nc2cc(C)ccn2)c1O.[Cu]
- GI50 [1]: 19.1 µM
- TGI [1]: 68.3 µM
- GI50 [2]: 20.5 µM
- TGI [2]: 46 µM
- GI50 [3]: 20.4 µM
- TGI [3]: 64.4 µM
- GI50 [4]: 16.5 µM
- TGI [4]: 42.4 µM
- GI50 [5]: 17.8 µM
- TGI [5]: 42.9 µM
- GI50 [6]: 12.7 µM
- TGI [6]: 39.1 µM
- GI50 [7]: 18.3 µM
- TGI [7]: 51.9 µM
- GI50 [8]: 6.01 µM
- TGI [8]: 32.1 µM
- GI50 [9]: 7.39 µM
- TGI [9]: 20.9 µM
- GI50 [10]: 22.8 µM
- TGI [10]: 43.4 µM

SMILES: COc1ccc2cc(-c3ccoc(=O)c3-c3cc(OC)c(OC)c(OC)c3)ccc2c1
- GI50 [1]: 0.0528 µM
- TGI [1]: > 100 µM
- GI50 [2]: 0.0986 µM
- TGI [2]: > 100 µM
- GI50 [3]: 0.334 µM
- TGI [3]: > 100 µM
- GI50 [4]: 0.232 µM
- TGI [4]: > 100 µM
- GI50 [5]: 0.0521 µM
- TGI [5]: > 100 µM
- GI50 [6]: 0.0681 µM
- TGI [6]: > 100 µM
- GI50 [7]: 0.0455 µM
- TGI [7]: > 100 µM
- GI50 [8]: 0.0842 µM
- TGI [8]: > 100 µM
- GI50 [9]: 0.0379 µM
- TGI [9]: 4.1 µM
- GI50 [10]: 0.0723 µM

SMILES: Nc1ncnc2[nH]ncc12
- GI50 [1]: 0.388 µM
- TGI [1]: 12.2 µM
- GI50 [2]: 0.11 µM
- TGI [2]: 1.44 µM
- GI50 [3]: 0.285 µM
- TGI [3]: 16.6 µM
- GI50 [4]: 1.98 µM
- TGI [4]: 74.9 µM
- GI50 [5]: 0.526 µM
- TGI [5]: > 55.7 µM
- GI50 [6]: 0.442 µM
- TGI [6]: 12.4 µM
- GI50 [7]: 0.646 µM
- TGI [7]: > 100 µM
- GI50 [8]: 3.57 µM
- TGI [8]: > 100 µM
- GI50 [9]: 4.18 µM
- TGI [9]: 24.5 µM
- GI50 [10]: 0.853 µM
- TGI [10]: 20.4 µM

SMILES: C=CC(=O)Nc1cccc(C)c1Nc1cc(-c2cccnc2Cc2c(C)c(OC)cc(OC)c2C)ncn1
- GI50 [1]: 9.9 µM
- TGI [1]: 38 µM
- GI50 [2]: 9.97 µM
- TGI [2]: > 100 µM
- GI50 [3]: 12 µM
- TGI [3]: 50 µM
- GI50 [4]: 6.23 µM
- TGI [4]: 29.6 µM
- GI50 [5]: 5.65 µM
- TGI [5]: > 100 µM
- GI50 [6]: 22.5 µM
- TGI [6]: 97.5 µM
- GI50 [7]: 10.7 µM
- TGI [7]: 41.7 µM
- GI50 [8]: 8.26 µM
- TGI [8]: > 100 µM
- GI50 [9]: 10.7 µM
- TGI [9]: 23.5 µM
- GI50 [10]: 1.93 µM
- TGI [10]: 9.44 µM

SMILES: O=C1C=C(Br)c2c(-c3ccccc3)oc3cccc1c23
- TGI [1]: > 100 µM
- TGI [2]: > 100 µM
- TGI [3]: > 100 µM
- TGI [4]: > 100 µM
- TGI [5]: > 100 µM
- TGI [6]: 98.2 µM
- TGI [7]: > 100 µM
- TGI [8]: > 47.6 µM
- TGI [9]: > 100 µM
- TGI [10]: > 100 µM
